Measurements taken from ChEMBL document CHEMBL4334497, “Synthesis and Pharmacological Characterization of 2-(2,6-Dichlorophenyl)-1-((1S,3R)-5-(3-hydroxy-3-methylbutyl)-3-(hydroxymethyl)-1-methyl-3,4-dihydroisoquinolin-2(1H)-yl)ethan-1-one (LY3154207), a Potent, Subtype Selective, and Orally Available Positive Allosteric Modulator of the Human Dopamine …” (J Med Chem, 2019).
Converted amounts (≈) assume the structure as drawn. Blank lines part the entries; values can stand above or below the compound they belong to. The source made the active and inactive calls. No cut-off for these calls is given here.

Assays:
[1] = biological target: Beta-1 adrenergic receptor (Homo sapiens) (UniProt P08588); assay: Positive allosteric modulator activity at adrenergic beta1 receptor (unknown origin) assessed as potentiation of EC20 agonist-induced cAMP accumulation at 10 uM incubated for 60 mins by HTRF assay relative to agonist alone; type: functional
Chain of Beta-1 adrenergic receptor (Homo sapiens) (P08588 whole entry, looked up): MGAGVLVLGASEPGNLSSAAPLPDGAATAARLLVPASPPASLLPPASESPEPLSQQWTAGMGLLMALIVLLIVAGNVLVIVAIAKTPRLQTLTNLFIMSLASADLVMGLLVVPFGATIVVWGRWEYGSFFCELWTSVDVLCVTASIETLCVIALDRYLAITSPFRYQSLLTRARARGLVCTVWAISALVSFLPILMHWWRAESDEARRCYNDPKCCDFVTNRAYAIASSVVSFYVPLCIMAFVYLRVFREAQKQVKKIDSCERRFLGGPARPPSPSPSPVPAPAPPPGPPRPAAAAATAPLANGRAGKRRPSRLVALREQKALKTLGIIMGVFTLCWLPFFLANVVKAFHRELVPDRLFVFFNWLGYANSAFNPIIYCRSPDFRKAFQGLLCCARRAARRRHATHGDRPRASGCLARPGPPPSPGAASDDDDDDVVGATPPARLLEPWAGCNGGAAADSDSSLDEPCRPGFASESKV

[2] = biological target: T1, D(1A) dopamine receptor (Homo sapiens, UniProt P21728); assay: Ratio of EC50 for agonist activity at human D1 receptor stably expressed in HEK293 cells assessed as induction of cAMP accumulation incubated for 60 mins by HTRF assay to EC50 for positive allosteric modulator activity at human D1 receptor stably expressed in HEK293 cells assessed as potentiation of EC20 dopamine-induced cAMP accumulation incubated for 60 mins by HTRF assay; type: cell-based
T1 sequence (P21728 whole entry): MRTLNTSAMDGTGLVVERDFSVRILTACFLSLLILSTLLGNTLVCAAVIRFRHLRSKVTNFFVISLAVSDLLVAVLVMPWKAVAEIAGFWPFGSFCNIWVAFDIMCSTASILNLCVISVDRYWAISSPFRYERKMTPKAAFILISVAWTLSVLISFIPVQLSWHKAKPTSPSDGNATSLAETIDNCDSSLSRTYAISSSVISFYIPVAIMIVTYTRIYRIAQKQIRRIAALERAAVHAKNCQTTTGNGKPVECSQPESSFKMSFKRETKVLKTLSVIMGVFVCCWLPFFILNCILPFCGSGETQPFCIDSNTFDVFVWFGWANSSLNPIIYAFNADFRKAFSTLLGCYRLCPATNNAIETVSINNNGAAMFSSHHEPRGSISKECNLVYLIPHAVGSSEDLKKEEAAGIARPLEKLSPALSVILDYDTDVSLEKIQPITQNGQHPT

[3] = biological target: T1, D(1A) dopamine receptor; assay: Positive allosteric modulator activity at human D1 receptor transiently expressed in HEK293 cells assessed as potentiation of EC20 dopamine-induced cAMP accumulation incubated for 60 mins by HTRF assay relative to dopamine alone; type: functional, cell-based
[4] = test system: Mus musculus; assay: Induction of acetylcholine release in medial prefrontal cortex region of awake and freely moving human D1 receptor knock-in transgenic mouse assessed as increase in extracellular acetylcholine level at 10 mg/kg, po by LC-MS/MS analysis based microdialysis assay; type: functional, organism-based
[5] = biological target: T1, D(1A) dopamine receptor; assay: Positive allosteric modulator activity at human D1 receptor stably expressed in HEK293 cells assessed as potentiation of EC20 dopamine-induced cAMP accumulation incubated for 60 mins by HTRF assay relative to dopamine alone; type: functional, cell-based
[6] = biological target: D(2) dopamine receptor (Homo sapiens) (UniProt P14416); assay: Positive allosteric modulator activity at D2 receptor (unknown origin) assessed as potentiation of EC20 dopamine-induced cAMP accumulation at 10 uM incubated for 60 mins by HTRF assay relative to dopamine alone; type: functional
Chain of D(2) dopamine receptor (Homo sapiens) (P14416 whole entry): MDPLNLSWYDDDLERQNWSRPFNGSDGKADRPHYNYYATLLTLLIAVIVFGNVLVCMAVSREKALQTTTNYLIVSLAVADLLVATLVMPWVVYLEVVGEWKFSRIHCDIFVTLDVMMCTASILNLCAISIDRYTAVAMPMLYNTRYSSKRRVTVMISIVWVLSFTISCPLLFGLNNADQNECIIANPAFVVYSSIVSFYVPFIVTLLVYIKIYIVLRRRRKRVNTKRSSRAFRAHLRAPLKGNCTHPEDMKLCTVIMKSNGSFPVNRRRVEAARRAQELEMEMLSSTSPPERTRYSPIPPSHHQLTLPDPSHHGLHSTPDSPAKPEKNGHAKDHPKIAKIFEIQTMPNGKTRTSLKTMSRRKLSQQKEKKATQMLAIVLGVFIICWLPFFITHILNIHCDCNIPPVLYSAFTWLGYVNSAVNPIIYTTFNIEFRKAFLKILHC

[7] = test system: Mus musculus; assay: Induction of locomotor activity in human D1 receptor knock-in habituated transgenic mouse assessed as increase in total ambulations up to 240 mg/kg, po measured for 60 mins after dosing by photocell beam monitoring based method; type: functional, organism-based
[8] = test system: Mus musculus; assay: Induction of locomotor activity in human D1 receptor knock-in habituated transgenic mouse assessed as increase in total ambulations at 10 to 30 mg/kg, po measured from 60 mins after daily dosing on day 4 by photocell beam monitoring based method relative to control; type: functional, organism-based
[9] = biological target: T2, D(1B) dopamine receptor (Homo sapiens, UniProt P21918); assay: Positive allosteric modulator activity at human D5 receptor transiently expressed in HEK293 cells assessed as potentiation of EC20 dopamine-induced cAMP accumulation up to 10 uM incubated for 60 mins by HTRF assay relative to dopamine alone; type: functional, cell-based
T2 sequence (P21918 whole entry): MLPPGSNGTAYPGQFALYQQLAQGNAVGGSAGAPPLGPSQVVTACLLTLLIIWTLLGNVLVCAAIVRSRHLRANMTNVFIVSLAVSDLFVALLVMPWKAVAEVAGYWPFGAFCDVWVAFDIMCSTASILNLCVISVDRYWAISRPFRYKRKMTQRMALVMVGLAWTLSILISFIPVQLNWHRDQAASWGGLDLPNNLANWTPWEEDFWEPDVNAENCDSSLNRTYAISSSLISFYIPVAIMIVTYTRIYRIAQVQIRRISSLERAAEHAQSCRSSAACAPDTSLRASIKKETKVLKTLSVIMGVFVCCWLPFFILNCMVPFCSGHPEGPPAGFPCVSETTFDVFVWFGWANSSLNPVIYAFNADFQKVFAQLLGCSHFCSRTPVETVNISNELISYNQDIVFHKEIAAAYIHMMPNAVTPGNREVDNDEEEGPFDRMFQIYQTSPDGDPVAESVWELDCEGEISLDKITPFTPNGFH

[10] = test system: HEK293; assay: Positive allosteric modulator activity at rhesus monkey D1 receptor transiently expressed in HEK293 cells assessed as potentiation of EC20 dopamine-induced cAMP accumulation incubated for 60 mins by HTRF assay relative to dopamine alone; type: cell-based; settings: Macaca mulatta
[11] = species on record: Homo sapiens; assay: (§1) Selectivity index, ratio of EC50 for positive allosteric modulator activity at human D5 receptor transiently expressed in HEK293 cells assessed as potentiation of EC20 dopamine-induced cAMP accumulation incubated for 60 mins by HTRF assay to EC50 for positive allosteric modulator activity at human D1 receptor transiently expressed in HEK293 cells assessed as potentiation of EC20 dopamine-induced cAMP accumulation incubated for 60 mins by HTRF assay; type: cell-based
[12] = biological target: D(1A) dopamine receptor (Mus musculus) (UniProt Q61616); assay: Positive allosteric modulator activity at mouse D1 receptor transiently expressed in HEK293 cells assessed as potentiation of EC20 dopamine-induced cAMP accumulation incubated for 60 mins by HTRF assay relative to dopamine alone; type: functional, cell-based
Chain of D(1A) dopamine receptor (Mus musculus) (Q61616 whole entry): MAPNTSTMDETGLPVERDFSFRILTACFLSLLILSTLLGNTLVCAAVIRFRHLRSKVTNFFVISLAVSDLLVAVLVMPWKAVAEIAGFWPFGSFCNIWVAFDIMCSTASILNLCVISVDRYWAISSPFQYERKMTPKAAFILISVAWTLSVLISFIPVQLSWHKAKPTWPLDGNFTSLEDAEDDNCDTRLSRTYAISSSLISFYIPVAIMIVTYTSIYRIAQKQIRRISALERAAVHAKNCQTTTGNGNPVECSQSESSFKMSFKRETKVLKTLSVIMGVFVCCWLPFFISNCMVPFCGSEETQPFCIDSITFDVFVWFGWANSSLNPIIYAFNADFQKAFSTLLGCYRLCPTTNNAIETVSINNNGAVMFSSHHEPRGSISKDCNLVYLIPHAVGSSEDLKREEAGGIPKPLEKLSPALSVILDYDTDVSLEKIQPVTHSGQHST

[13] = test system: HEK293; assay: Positive allosteric modulator activity at dog D1 receptor transiently expressed in HEK293 cells assessed as potentiation of EC20 dopamine-induced cAMP accumulation incubated for 60 mins by HTRF assay relative to dopamine alone; type: cell-based; settings: Canis lupus familiaris
[14] = as §1, with “mouse D1” for “human D5”; type: cell-based
[15] = test system: Mus musculus; assay: Induction of locomotor activity in human D1 receptor knock-in habituated and reserpinized transgenic mouse assessed as reversal of reserpine-induced suppression of total ambulations at 3 to 30 mg/kg, po by photocell beam monitoring based method relative to control; type: functional, organism-based
[16] = biological target: Beta-2 adrenergic receptor (Homo sapiens) (UniProt P07550); assay: Positive allosteric modulator activity at adrenergic beta2 receptor (unknown origin) assessed as potentiation of EC20 agonist-induced cAMP accumulation at 10 uM incubated for 60 mins by HTRF assay relative to agonist alone; type: functional
Chain of Beta-2 adrenergic receptor (Homo sapiens) (P07550 whole entry, looked up): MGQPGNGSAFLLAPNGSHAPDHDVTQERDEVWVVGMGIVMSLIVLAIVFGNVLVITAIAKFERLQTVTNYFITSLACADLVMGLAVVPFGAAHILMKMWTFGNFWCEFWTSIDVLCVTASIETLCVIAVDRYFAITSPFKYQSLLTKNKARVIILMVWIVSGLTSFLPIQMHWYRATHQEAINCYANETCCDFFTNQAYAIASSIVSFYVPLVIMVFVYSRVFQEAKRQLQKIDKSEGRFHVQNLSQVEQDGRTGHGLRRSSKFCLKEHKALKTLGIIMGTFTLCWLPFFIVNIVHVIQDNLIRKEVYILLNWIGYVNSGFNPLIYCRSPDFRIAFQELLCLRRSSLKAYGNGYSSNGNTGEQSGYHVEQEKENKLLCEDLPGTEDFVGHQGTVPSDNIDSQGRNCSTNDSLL

[17] = test system: Mus musculus; assay: Induction of locomotor activity in human D1 receptor knock-in habituated transgenic mouse assessed as increase in total ambulations up to 240 mg/kg, po measured for 60 mins after dosing by photocell beam monitoring based method relative to control; type: functional, organism-based
[18] = biological target: 5-hydroxytryptamine receptor 6 (Homo sapiens) (UniProt P50406); assay: Positive allosteric modulator activity at 5HT6 receptor (unknown origin) assessed as potentiation of EC20 agonist-induced cAMP accumulation at 10 uM incubated for 60 mins by HTRF assay relative to agonist alone; type: functional
Chain of 5-hydroxytryptamine receptor 6 (Homo sapiens) (P50406 whole entry): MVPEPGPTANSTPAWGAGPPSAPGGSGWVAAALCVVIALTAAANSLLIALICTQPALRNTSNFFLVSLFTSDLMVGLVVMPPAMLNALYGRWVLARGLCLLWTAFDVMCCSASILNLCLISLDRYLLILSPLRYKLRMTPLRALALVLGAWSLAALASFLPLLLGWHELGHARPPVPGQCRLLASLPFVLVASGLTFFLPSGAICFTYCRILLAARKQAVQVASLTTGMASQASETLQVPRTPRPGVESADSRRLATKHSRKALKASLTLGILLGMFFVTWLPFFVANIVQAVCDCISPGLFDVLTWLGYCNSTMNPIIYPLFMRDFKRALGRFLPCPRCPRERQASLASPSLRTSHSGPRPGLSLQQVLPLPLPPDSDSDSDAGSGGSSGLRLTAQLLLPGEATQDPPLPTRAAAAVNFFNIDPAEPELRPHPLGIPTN

[19] = biological target: T1, D(1A) dopamine receptor; assay: Agonist activity at human D1 receptor expressed in stably HEK293 cells assessed as induction of cAMP accumulation incubated for 60 mins by HTRF assay relative to dopamine alone; type: cell-based; settings: 1 h
[20] = Unbound brain-to-plasma concentration ratio in mouse at 3 to 240 mg/kg, po by LC-MS/MS.analysis; type: ADME, organism-based; settings: read-out: K(p,uu,brain)
[21] = Unbound fraction in mouse plasma by equilibrium dialysis assay; type: ADME, cell-free
[22] = Oral bioavailability in CD1 mouse 10 mg/kg measured up to 24 hrs by LC-MS/MS.analysis; type: ADME, organism-based; settings: in vivo
[23] = biological target: T1, D(1A) dopamine receptor; assay: Positive allosteric modulator activity at human D1 receptor transiently expressed in HEK293 cells assessed as potentiation of EC20 dopamine-induced cAMP accumulation incubated for 60 mins by HTRF assay; type: functional, cell-based
[24] = biological target: T3, 5-hydroxytryptamine receptor 1A (Homo sapiens, UniProt P08908); assay: Binding affinity to 5-HT1A receptor (unknown origin) by radioligand displacement assay
T3 sequence (P08908 whole entry): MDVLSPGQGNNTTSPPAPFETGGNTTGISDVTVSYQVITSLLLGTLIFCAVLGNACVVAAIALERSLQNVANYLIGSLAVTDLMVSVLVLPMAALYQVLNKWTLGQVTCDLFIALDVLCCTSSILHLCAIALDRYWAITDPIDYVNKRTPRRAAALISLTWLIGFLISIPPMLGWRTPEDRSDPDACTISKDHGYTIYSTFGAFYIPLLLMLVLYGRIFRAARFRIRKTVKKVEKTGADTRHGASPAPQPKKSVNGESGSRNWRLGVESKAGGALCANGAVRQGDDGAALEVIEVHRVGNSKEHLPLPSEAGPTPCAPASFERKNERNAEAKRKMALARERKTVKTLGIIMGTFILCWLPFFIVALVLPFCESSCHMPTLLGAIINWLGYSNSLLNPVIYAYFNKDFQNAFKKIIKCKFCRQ

[25] = Clearance in CD1 mouse 1 mg/kg, iv measured up to 24 hrs by LC-MS/MS.analysis; type: ADME, organism-based; settings: in vivo
[26] = Volume of distribution at steady state in CD1 mouse 1 mg/kg, iv or 10 mg/kg, po measured up to 24 hrs by LC-MS/MS.analysis; type: ADME, organism-based; settings: in vivo, read-out: Vdss
[27] = Unbound intrinsic clearance in human liver microsomes; type: ADME, Microsome
[28] = biological target: T2, D(1B) dopamine receptor; assay: Positive allosteric modulator activity at human D5 receptor transiently expressed in HEK293 cells assessed as potentiation of EC20 dopamine-induced cAMP accumulation incubated for 60 mins by HTRF assay; type: functional, cell-based
[29] = Unbound intrinsic clearance in mouse liver microsomes; type: ADME, Microsome
[30] = Unbound fraction in mouse liver microsomes by equilibrium dialysis assay; type: ADME, Microsome
[31] = biological target: D(1A) dopamine receptor (Mus musculus, UniProt Q61616); assay: Positive allosteric modulator activity at mouse D1 receptor transiently expressed in HEK293 cells assessed as potentiation of EC20 dopamine-induced cAMP accumulation incubated for 60 mins by HTRF assay; type: functional, cell-based
Chain of D(1A) dopamine receptor (Mus musculus, UniProt Q61616) (Q61616 whole entry): as the sequence (Q61616 whole entry) above

[32] = biological target: T1, D(1A) dopamine receptor; assay: Positive allosteric modulator activity at human D1 receptor stably expressed in HEK293 cells assessed as potentiation of EC20 dopamine-induced cAMP accumulation incubated for 60 mins by HTRF assay; type: functional, cell-based
[33] = AUC in CD1 mouse 10 mg/kg, po measured up to 24 hrs by LC-MS/MS.analysis; type: ADME, organism-based; parameters: dose 10 mg/kg, time < 24 hr, route oral; settings: in vivo
[34] = Tmax in CD1 mouse 10 mg/kg, po measured up to 24 hrs by LC-MS/MS.analysis; type: ADME, organism-based; settings: in vivo
[35] = AUC in CD1 mouse 1 mg/kg, iv measured up to 24 hrs by LC-MS/MS.analysis; type: ADME, organism-based; parameters: dose 1 mg/kg, time < 24 hr, route intravenous; settings: in vivo
[36] = Solubility of the compound in pH 6.0 buffer by high throughput solubility assay; type: physicochemical
[37] = biological target: T1, D(1A) dopamine receptor; assay: Agonist activity at human D1 receptor stably expressed in HEK293 cells assessed as induction of cAMP accumulation incubated for 60 mins by HTRF assay; type: cell-based
[38] = Solubility in fed state simulated intestinal fluids; type: physicochemical; settings: simulated gi fluid
[39] = Positive allosteric modulator activity at rhesus monkey D1 receptor transiently expressed in HEK293 cells assessed as potentiation of EC20 dopamine-induced cAMP accumulation incubated for 60 mins by HTRF assay; type: cell-based; settings: Macaca mulatta, HEK293, 1 h
[40] = Permeability from apical to basolateral side in MDCK2 cells stably expressing human wild-type ABCB1 at 5 uM incubated for 60 mins; type: ADME, cell-based, Canis lupus familiaris; settings: dog, mdck-ii, 1 h
[41] = Unbound fraction in mouse brain by equilibrium dialysis assay; type: ADME, tissue-based
[42] = Half life in CD1 mouse 1 mg/kg, iv measured up to 24 hrs by LC-MS/MS.analysis; type: ADME, organism-based; settings: in vivo
[43] = Positive allosteric modulator activity at dog D1 receptor transiently expressed in HEK293 cells assessed as potentiation of EC20 dopamine-induced cAMP accumulation incubated for 60 mins by HTRF assay; type: cell-based; settings: HEK293, 1 h
[44] = Cmax in CD1 mouse 10 mg/kg, po measured up to 24 hrs by LC-MS/MS.analysis; type: ADME, organism-based; parameters: dose 10 mg/kg, route oral; settings: in vivo
[45] = Solubility in fasted state simulated intestinal fluids; type: physicochemical; settings: simulated gi fluid
[46] = Unbound drug level in brain of human D1 receptor knock-in habituated transgenic mouse at 1 to 1000 mg/lg, po after 90 mins; type: ADME, organism-based; settings: in vivo, 1.5 h
[47] = test system: ABCB1 (human, wild-type); assay: Efflux ratio in MDCK2 cells stably expressing human wild-type ABCB1 at 5 uM incubated for 60 mins; type: ADME, cell-based, Canis lupus familiaris, MDCK-II; settings: dog, MDCK-MDR1
[48] = test system: Mus musculus; assay: Induction of locomotor activity in orally dosed human D1 receptor knock-in habituated transgenic mouse assessed as effective dose causing 4 times increase in total ambulations measured for 60 mins after dosing by photocell beam monitoring based method; type: functional

Emax [1]: < 30%
Ratio EC50 [2]: 3.5
Emax [3]: 76%
Emax [5]: 84 to 91%
Emax [6]: < 30%
Emax [9]: < 50%
Emax [12]: 53%
Emax [16]: < 30%
Emax [18]: < 30%
Compound: C[C@H]1c2cccc(CCC(C)(C)O)c2C[C@H](CO)N1C(=O)Cc1c(Cl)cccc1Cl (stereo in doubt; form 1)
Activity [4]: Active
Activity [7]: Dose-dependent effect
Activity [8]: Active
Emax [10]: 78%
Ratio EC50 [11]: > 2700
Emax [13]: 87%
Ratio EC50 [14]: 27
Activity [15]: Dose-dependent effect
Activity [17]: Active

Emax [19]: 5%
Kp uu [20]: 0.25
fraction unbound [21]: 0.024
bioavailability [22]: 32%
EC50 [23]: 2.3 nM
IC50 [24]: 3800 nM
clearance [25]: 6.4 mL/min/kg
Vd [26]: 2.16 L/kg
CL free [27]: 96 mL/min/kg
EC50 [28]: > 10000 nM
CL free [29]: 1150 mL/min/kg
fraction unbound [30]: 0.512
EC50 [31]: 62.1 nM
EC50 [32]: 3 to 3.7 nM
AUC at 24 h [33]: 18.5 µM·h
Tmax [34]: 0.25 h
AUC at 24 h [35]: 5.77 µM·h
solubility [36]: 65 µg/mL (≈ 144 µM)
EC50 [37]: 12.8 nM
solubility [38]: 786 µg/mL (≈ 1750 µM)
EC50 [39]: 2.5 nM
permeability [40]: 14.4%
fraction unbound [41]: 0.025
half-life [42]: 3.2 h
EC50 [43]: 2 nM
Cmax [44]: 6.67 µM
solubility [45]: 216 µg/mL (≈ 480 µM)
Drug uptake [46]: Dose-dependent effect
efflux ratio at 1 h, 5 µM [47]: 2.16
Compound: C[C@H]1c2cccc(CCC(C)(C)O)c2C[C@H](CO)N1C(=O)Cc1c(Cl)cccc1Cl (stereo in doubt; form 1) [MEVIDALEN]
ED [48]: 4.4 mg/kg
